Earlier results, collected in patent US11351146B2, “Topical compositions for the treatment of cutaneous leishmaniasis” (AC BIOSCIENCE SA, priority 2017, dated 2022).

Columns and labels:
[1] = tested on: L. mexicana, L. infantum and L. major promastigotes
intracellular amastigote = conditions: versus glucantime

Q: With `CCOC(=O)c1cccc(NC(=O)CCl)c1` [MF 29, 3-(2-chloroacetamido) ethyl benzoate] as the compound, how does the “effect on promastigotes strains” value ([1]; L. mexicana, L. infantum and L. major promastigotes) read?
A: high effect

Q: What about the “fold more active than glucantime” value ([1]; promastigote, versus glucantime) of the same compound?
A: 400 fold

Q: What about the “fold more active than glucantime” value (intracellular amastigote) of the same compound?
A: 400 fold
